Consider three molecules from patent US20250082914A1 (priority 2022, published 2025).

The conditions of data set [1]: in the presence of permeation enhancers; cited from earlier work.
A short description of data set [2]: In vitro drug release, USP device type II, SGF then SIF. The conditions noted are these: after switch from SGF pH 1.2 (30 min) to SIF pH 6.8; 37° C., 100 rpm; 8 mm device, 20 mg desmopressin, 40 mg PVP, enteric capsule. Type of data set: physicochemical. The method, then: The temperature was set at 37° C., and the rotating speed was at 100 rpm. Aliquots of 1 mL were sampled at the predetermined time points and the sampled volume was replaced with fresh SGF or SIF buffer. Quantification was carried by HPLC (VWR Hitachi Chromaster system with 5160 pump, 5260 autosampler, 5310 column oven and 5430 diode array detector, VWR International, Radnor, PA) with the UV wavelength set at 280 nm. […] At the intestinal pH, desmopressin started being released when the solvent was switched to SIF and was completely released within about 20 minutes. […] The drug release kinetics is also controlled with the polymeric excipient.

With semaglutide, the oral bioavailability in data set [1] is reported as roughly 1%.
`C[C@@H](O)[C@@H]1NC(=O)[C@H](CCCCN)NC(=O)[C@@H](Cc2c[nH]c3ccccc23)NC(=O)[C@H](Cc2ccccc2)NC(=O)[C@@H](NC(=O)[C@H](N)Cc2ccccc2)CSSC[C@@H](C(=O)N[C@H](CO)[C@@H](C)O)NC1=O` [octreotride]: the oral bioavailability in data set [1] is 0.5-1%.
As to `NC(=O)CC[C@@H]1NC(=O)[C@H](Cc2ccccc2)NC(=O)[C@H](Cc2ccc(O)cc2)NC(=O)CCSSC[C@@H](C(=O)N2CCC[C@H]2C(=O)N[C@H](CCCN=C(N)N)C(=O)NCC(N)=O)NC(=O)[C@H](CC(N)=O)NC1=O` [desmopressin], the “time to complete release of desmopressin” value in data set [2] was no more than 20 min.
